Legend:
Experiment in all cases: relative viability (nuclei count vs DMSO), 5 days (fraction); higher = more cells survive
Quizartinib = compound: CC(C)(C)c1cc(NC(=O)Nc2ccc(-c3cn4c(n3)sc3cc(OCCN5CCOCC5)ccc34)cc2)no1 [Quizartinib]
In short: (§1)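 Five library-drug doses, separated by factors of √10, were pinned into 1536-well plates holding lung cancer cell lines after an overnight stay at 37 °C. Cells were fixed, permeabilised and Hoechst-stained in one step after 5 days without medium change, then imaged at 4×. Viability compares treated-well with vehicle-well nuclei, counted in MetaXpress, as a median across plates. Passing plates had control CV below 25% and at least one doubling.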

YM155 = compound: COCC[n+]1c2c(n(Cc3cnccn3)c1C)C(=O)c1ccccc1C2=O [YM155]
In short: as §1

Quizartinib + Navitoclax = compound: CC(C)(C)c1cc(NC(=O)Nc2ccc(-c3cn4c(n3)sc3cc(OCCN5CCOCC5)ccc34)cc2)no1 [Quizartinib] + CC1(C)CCC(c2ccc(Cl)cc2)=C(CN2CCN(c3ccc(C(=O)NS(=O)(=O)c4ccc(N[C@H](CCN5CCOCC5)CSc5ccccc5)c(S(=O)(=O)C(F)(F)F)c4)cc3)CC2)C1 [Navitoclax] (partner 0.5 µM)
In short: (§2)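 Lung cancer cell lines in 1536-well plates got either a single drug or a fixed anchor-drug dose together with five library-drug doses (not always all listed) in √10 steps, by pin tool, on the day after seeding. Nuclei were counted after 5 days, and relative viability is the treated-to-vehicle ratio of nuclei counts. Values are medians of duplicate plates.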

Quizartinib + Foretinib = compound: CC(C)(C)c1cc(NC(=O)Nc2ccc(-c3cn4c(n3)sc3cc(OCCN5CCOCC5)ccc34)cc2)no1 [Quizartinib] + COc1cc2c(Oc3ccc(NC(=O)C4(C(=O)Nc5ccc(F)cc5)CC4)cc3F)ccnc2cc1OCCCN1CCOCC1 [Foretinib] (partner 0.25 µM)
In short: as §2

Cell Line	relative viability (Quizartinib; 0.001 µM)	relative viability (Quizartinib; 0.003162 µM)	relative viability (Quizartinib; 0.01 µM)	relative viability (Quizartinib; 0.03162 µM)	relative viability (Quizartinib; 0.1 µM)	relative viability (YM155; 0.002 µM)	relative viability (YM155; 0.006325 µM)	relative viability (YM155; 0.02 µM)	relative viability (YM155; 0.06325 µM)	relative viability (Quizartinib + Navitoclax; first compound 0.001 µM)	relative viability (Quizartinib + Navitoclax; first compound 0.003162 µM)	relative viability (Quizartinib + Navitoclax; first compound 0.01 µM)	relative viability (Quizartinib + Navitoclax; first compound 0.03162 µM)	relative viability (Quizartinib + Navitoclax; first compound 0.1 µM)	relative viability (Quizartinib + Foretinib; first compound 0.001 µM)	relative viability (Quizartinib + Foretinib; first compound 0.01 µM)	relative viability (Quizartinib + Foretinib; first compound 0.03162 µM)	relative viability (Quizartinib + Foretinib; first compound 0.1 µM)	relative viability (Quizartinib + Foretinib; first compound 0.003162 µM)
LK-2	0.943	0.891	1.02	0.944	1.15	0.893	1.06	1.03	1.16	0.827	0.803	1.09	0.77	0.861	1.29	1.03	1.33	1.43	
LOU-NH91	0.954	1.12	0.965	0.857	1.14	0.958	1.01	1.02	1.07	0.732	0.766	0.808	0.562	0.832	0.967	0.906	0.902	1.02	0.903
LU99A	0.889	0.906	1.05	1.09	0.842	1.01	1.01	0.984	0.938	0.796	0.8	0.913	0.776	0.383	0.715	0.838	0.808	0.603	0.871
LXF-289	0.924	0.976	1.05	0.957	0.998	0.998	1.01	1.04	0.973	0.804	0.961	0.976	0.948	0.912	0.913	1.13	0.948	0.888	1
NCI-H23	0.742	1.01	0.918	0.896	1.05	0.734	0.925	0.957	0.529		0.852	0.915	0.773	0.472		0.975	0.934	0.819	1.03
NCI-H322M	0.952	1.03	0.916	0.965	0.978	0.92	0.982	1	1.03	1.1	1.08	1.19	1.37	1.23	0.86	0.939	0.851	0.954	0.939
NCI-H441	0.919	0.946	0.945	0.764	1.14	0.9	1.15	0.795	0.759	0.562	0.567	1.29	0.591	1.05	1.23	1.13		0.914	0.923
NCI-H460	0.811	0.957	1.02	0.78	0.942	0.984	1.02	0.997	0.988	1	1.09	1.24		1.13	0.916	1.03	0.652	0.976	0.961
NCI-H520	0.73	0.867	0.96	0.903	0.921	1.01	1.03	1.05	1.17	1.17	0.982	1.19	0.948	0.888	0.81	0.894	0.722	0.541	0.636
NCI-H596	1.05	1.03	0.99	0.875	1.04	0.962	0.989	1.15	1.06	0.931	0.885	0.985	0.883	0.864	0.925	0.949	0.903	0.754	0.816
NCI-H647	0.794	0.946	1.09	0.855	1.09	0.857	0.89	0.925	0.538	0.77	1.11	1.17	1.04	1.2	0.818	1.1	1.16	1.17	1.09
NCI-H727	0.7	0.899	0.883	0.83	0.96	0.932	0.933	0.967	1.04	0.408		0.611	0.476	0.357	0.71	0.838	0.801	0.871	0.877
NCI-H838	0.894	0.962	0.882	0.936	0.843	0.912	0.999	1.01	0.768	1.09	1.06	1.08	1.06	0.815	0.991	0.99	0.938	0.684	1.01
NCI-H1299	0.949	1.01	1.02	1.03	1.03	0.984	0.977	1.01	1		1.03	1.02	1.01	1.04	1.06	1.14	1.05	1.12	1.05
NCI-H1355	0.924	0.966	0.876	1	1.02	0.927	1.01	1.01	1.08	0.868	0.921	0.912	1	1	0.917	0.936	0.814	1.06	0.957
NCI-H1395	0.93	0.949	0.841	0.811	1.16	0.898	0.946	1.12	0.985	1.05	1.07	1.14	1.59	1.36	0.961	1.02	0.995	1.03	0.971
NCI-H1437	0.942	0.963	0.973	0.822	0.849	0.89	0.96	0.983	0.826	0.954	0.994	1.04	0.904	0.8	0.719	1.28	1.07	0.949	1.16

Cell Line	relative viability (Quizartinib; 0.001 µM)	relative viability (Quizartinib; 0.003162 µM)	relative viability (Quizartinib; 0.01 µM)	relative viability (Quizartinib; 0.03162 µM)	relative viability (Quizartinib; 0.1 µM)	relative viability (YM155; 0.002 µM)	relative viability (YM155; 0.006325 µM)	relative viability (YM155; 0.02 µM)	relative viability (YM155; 0.06325 µM)	relative viability (Quizartinib + Navitoclax; first compound 0.001 µM)	relative viability (Quizartinib + Navitoclax; first compound 0.003162 µM)	relative viability (Quizartinib + Navitoclax; first compound 0.01 µM)	relative viability (Quizartinib + Navitoclax; first compound 0.03162 µM)	relative viability (Quizartinib + Navitoclax; first compound 0.1 µM)	relative viability (Quizartinib + Foretinib; first compound 0.001 µM)	relative viability (Quizartinib + Foretinib; first compound 0.01 µM)	relative viability (Quizartinib + Foretinib; first compound 0.03162 µM)	relative viability (Quizartinib + Foretinib; first compound 0.1 µM)	relative viability (Quizartinib + Foretinib; first compound 0.003162 µM)
NCI-H1650	0.877	0.976	0.918		1	0.867	0.921	0.863	0.739	0.928	1.25	1.35		1.24	0.549	1.35		1.03	1.11
NCI-H1651	0.88	0.885	1.06	0.924	0.988	0.929	0.992	0.974	0.998	0.848	0.895	0.963	0.845	0.995	0.766	0.872	0.606	0.769	0.747
NCI-H1666	0.86	1.01	1	0.845	1.02	0.932	1	1.02	0.918	0.773	0.949	1.06	0.743	0.866	0.749	1.03	0.783	1.02	0.925
NCI-H1703	0.847	0.527	0.256	0.264	0.316	0.808	0.807	0.767	0.444	0.978	0.474	0.234	0.214	0.296	0.514	0.371	0.406	0.282	0.35
NCI-H1734	0.924	0.959	1.03	0.943	1.01	0.995	0.956	1.01	1.1	0.741	0.794	0.888	0.788	0.849	0.693	0.933	0.862	0.802	0.776
NCI-H1755	0.866	0.958	0.996	1.07	0.99	0.973	0.996	0.968	1.03	0.925	0.976	1.01	1	0.926	0.826	0.93	0.956	0.822	0.881
NCI-H1793	0.838	1.01	0.839	0.853	0.925	0.706	0.936	0.908	0.869	0.414	0.304	0.496	0.423	0.331	0.728	0.797	0.759	0.729	0.59
NCI-H1915	0.877	0.925	0.865	0.998	1.02	0.888	0.994	0.997	0.817	0.771	0.75	0.833	0.822	0.785	1.06	1.13	1.03	1.07	0.992
NCI-H1944	0.938	0.918	0.889	0.918	0.944	0.957	0.889	1.02	1.03	0.888	1.07	1.06	1.08	1.07	0.854	0.938	0.888	0.795	0.825
NCI-H1975	0.853	0.891	0.966	1.03	1.01	0.826	0.883	0.921	0.679	1.02	1.1	1.19	1.06	1.1	0.936	0.869	0.843	1.14	0.89
NCI-H1993	0.948	1	1.02	1.04	1.11	0.904	0.927	0.771	0.577	0.964	0.906	1.13	0.959	0.793	0.806	0.793	0.81	0.792	0.809
NCI-H2009	0.903	0.937	0.995	1.02	0.96	0.976	0.992	1.02	0.836	1.13	1.16	1.22	1.03	1.23	1.24	1.29	1.17	1.21	1.17
NCI-H2023	0.881	0.999	0.938		1.01	0.872	1.01	0.866	0.71	0.981	0.937	1.04	0.744	1.04	0.788	0.869		0.742	0.752
NCI-H2085	0.95	0.939	1.02	0.943	0.976	0.954	0.986	0.922	0.636	1.03	1.09	1.12	1.15	1	0.868	1.2	0.873	0.883	0.853
NCI-H2087	0.85	0.784	1.24	1.09	1.11	1.07	1.03	1.1	0.856	0.971	0.953	1.06	1.02	0.962		1.12	0.941	1.07	1.05
NCI-H2126	0.981	1.01	1.01	1.05	1.08	0.972	1.03	0.991	1.05	0.813	0.823	0.882	0.872	0.828	1	1.2	1.22	1.23	1.12
